In general, IC50 refers to the concentration needed to halve the response being measured. Read a low IC50 as greater potency in that assay.

The results in this text go back to article PMC4420247, “8-Triazolylpurines: Towards Fluorescent Inhibitors of the MDM2/p53 Interaction” (PLoS ONE, 2015).

In assay [1] the target is T1, MDM2 (Homo sapiens, UniProt Q00987). Nature of the assay: FP displacement of Texas Red-labelled p53 peptide from MDM2; binding confirmed by WaterLOGSY NMR.
In assay [2] the target is T1, MDM2. Description: FP displacement of Texas Red-labelled p53 peptide from MDM2. It counts as binding.

T1 sequence (Q00987 whole entry): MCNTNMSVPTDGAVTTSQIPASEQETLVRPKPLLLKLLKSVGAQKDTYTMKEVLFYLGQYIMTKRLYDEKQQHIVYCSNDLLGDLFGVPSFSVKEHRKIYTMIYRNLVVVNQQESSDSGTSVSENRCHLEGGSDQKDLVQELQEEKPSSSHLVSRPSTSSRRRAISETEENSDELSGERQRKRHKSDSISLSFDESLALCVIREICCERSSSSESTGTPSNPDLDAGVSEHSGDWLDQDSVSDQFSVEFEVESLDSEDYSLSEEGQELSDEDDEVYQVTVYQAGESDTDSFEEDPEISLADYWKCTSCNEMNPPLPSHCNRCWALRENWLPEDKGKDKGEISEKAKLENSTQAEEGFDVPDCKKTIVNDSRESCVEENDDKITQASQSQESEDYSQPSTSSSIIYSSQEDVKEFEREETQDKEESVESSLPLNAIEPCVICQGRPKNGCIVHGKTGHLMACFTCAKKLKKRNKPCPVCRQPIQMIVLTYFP

With `CCCNc1nc(NCC(=O)OCC)c2nc(-c3cn(C)nn3)n(C3Cc4ccccc4C3)c2n1` [14f, 6-(Ethoxy-carbonyl-methylamino)-9-(2-indanyl)-8-(1-methyl-1H-1,2,3-triazol-4-yl)-2-(1-propylamino)purine], on MDM2 [1], the IC50 came out at 10 µM.
`CCCNc1nc(N)c2nc(-c3cn(C)nn3)n(C3Cc4ccccc4C3)c2n1` [14j]: the IC50 on MDM2 [2] was 56 µM.
